Read-outs that look alike come from different tables or passages of the source.
What was measured:
SRBC = experiment: Hemolysis of SRBC; type: cell-based
[1] = test system: 60 different human tumor cell lines; experiment: NCI in vitro screening, 60 human tumor cell lines; type: cell-based; details: 60 cell lines
Source text: (§1) A study measuring the in vitro cytotoxic activity of Compound 1 was first performed by the NCI (National Cancer Institute, U.S. National Institutes of Health, Bethesda, Md., USA) against a panel of human cancer cell lines. This screen utilizes 60 different human tumor cell lines, representing cancers of the blood, skin, lung, colon, brain, ovary, breast, prostate, and kidney. Further information regarding the NCI panel of human cancer lines can be obtained by following the links at the NCI world-wide website of the National Cancer Institute. The compound was sent and tested on three occasions (Mar. 31, 2003; Dec. 1, 2003; Mar. 27, 2007).

[2] = test system: breast carcinoma tumor cell lines; experiment: NCI panel, breast carcinoma; type: cell-based; details: Homo sapiens; read-out: GI50 range, breast carcinoma
Source text: as §1

[3] = test system: ovarian carcinoma tumor cell lines; experiment: NCI panel, ovarian carcinoma; type: cell-based; details: Homo sapiens; read-out: GI50 range, ovarian carcinoma
Source text: as §1

[4] = test system: colon carcinoma tumor cell lines; experiment: NCI panel, colon carcinoma; type: cell-based; details: Homo sapiens; read-out: GI50 range, colon carcinoma
Source text: as §1

[5] = TLN-4601 concentrations in plasma and tissues of rats with C6 orthotopic brain tumors; type: in vivo; details: rat; for concentration at 60 min: CIV for 60 min
Experimental: (R)-1-(2-chlorophenyl)-[…]N-(1-methyl-propyl)-3-isoquinoline carboxamide (R N-desmethyl PK11195), the precursor for the radioisotope-labeled (R)-PK11195, was purchased from ABX (Radeburg, Germany). The synthesis of ^11C-(R)-PK11195 was accomplished by a modification of the method of Camsonne et al. (J. Label. Compd. Radiopharm., 21: 985-991, 1984). In vivo PET studies were performed 14 days post tumor implantation. PET imaging studies were performed while the animals were anesthetized and placed in the supine position on the bed and at the center of the FOV of the CTI Concorde R4 microPET scanner (Siemens/CTI Concorde, Knoxville, Tenn.). Each dynamic PET study lasted 60 min and was initiated with an IV bolus administration of 11C-PK11195 (7.1-12.7 MBq) radioligand via the tail vein. Receptor occupancy studies were performed by acquisition of 11C-PK11195 images prior to and during TLN-4601 treatment over 60 minutes. TLN-4601 was administered by a bolus IV infusion (30 mg/kg) followed by continuous IV infusion (5 mg/h/kg) lasting through the dynamic scan. Attenuation correction factors, for each 6 rats, were determined using a 10 minute 57 Co transmission scan acquired immediately prior to the dynamic scan. In addition, all images were scatter corrected.
Following completion of in vivo studies, animals were sacrificed by anesthetic overdose and decapitated. Brain, tumor, and liver were snap-frozen in liquid nitrogen and stored frozen (−70° C.±10° C.). For blood samples, each blood sample was collected into a K2-EDTA tube and kept on wet ice for a maximum of 30 minutes. Blood samples were centrifuged under refrigeration (2 to 8° C.) for 10 minutes at 1,500 g (RCF). A volume of 25 μL of aqueous 4% w/v L-ascorbic acid was added to a volume of 225 μL of rat plasma in a clean tube, and the samples were thoroughly mixed by inversion. A volume of 125 uL of the resulting mixture was transferred to a separate tube for bioanalysis, while the remaining mixture was maintained as a backup, and both the bioanalysis and back-up portions were frozen on dry ice and stored frozen (−70° C.±10° C.).
Rat plasma and tissue samples were extracted with 9 volumes of acetone containing 100 ng/mL of the internal standard (Compound 2) and analysed by HPLC/MS/MS as described in Gourdeau et al (Cancer Chemother Pharmacol vol 61 pp. 911-921).

U87 parental = experiment: Caspase-3 activity, U87 parental cells; type: cell-based, human; details: 18 h, serum-free medium
Experimental: Firstly, cells (U87 parental, U87 transfected with EGFR-WT, and U87 transfected with mutated EGFR VIII) were plated in 6 well plates in DMEM containing 10% FBS. The following day, the plated cells were treated with increasing concentrations of Compound 1 (TLN-4601) in serum-free medium. After an 18 h incubation period in the presence of Compound 1, the treated cells were measured for caspase-3 activity using a commercial kit.

[6] = test system: U87 glioma cells and HVMEC-B; experiment: Fluorimetric caspase-3 activity, U87 glioma versus brain endothelial cells; type: cell-based, human; details: 0-30 μM, 18 hours
Experimental: To test the effect of Compound 1 on caspase 3 activity in endothelial cells, the following experiment was conducted. HVMEC-B and U87 glioma cells were treated with increasing concentrations of Compound 1 (0-30 μM) in serum-free media for 18 hours. Fluorimetric caspase-3 activity assay was performed as follows: cells were grown to about 60% confluence in 6-well dishes and treated with increasing concentrations of Compound 1 for 18 hours. Cells were then collected and washed in ice-cold PBS pH 7.0. Cells were subsequently lysed in Apo-Alert lysis buffer (Clontech, Palo Alto, Calif.) for 1 hr at 4° C. and the lysates were clarified by centrifugation. Caspase-3 activity was determined by incubation with 50 μM caspase-3-specific fluorogenic peptide substrate acetyl-Asp-Glu-Val-Asp-7-amino-4-trifluoromethylcoumarin (Ac-DEVD-AFC) in 96-well plates. The release of AFC was monitored for at least 30 min at 37° C. on a fluorescence plate reader (Molecular Dynamics (Amersham Biosciences Inc, Sunnyvale, Calif.)) (λex=400 nm, λem=505 nm).

PBR = target: T1, PBR (Rattus norvegicus, UniProt P16257); experiment: In-house PBR binding assay, [3H]PK11195, rat heart mitochondrial membrane
T1 construct: containing the enriched mitochondria membrane preparation (25 μg of protein); from tissue; host or cells: Sprague Dawley rat heart, enriched mitochondrial membrane preparation
Experimental: Hearts obtained from 3 Sprague Dawley rats were homogenized in 20 volumes of ice-cold 50 mM Tris-HCl, pH 7.5. After two centrifugations at 1500 g for 10 minutes at 4° C., the supernatant was centrifuged at 48000 g for 20 minutes at 4° C. The resulting pellet was resuspended in 50 mM Tris-HCl pH 7.5 and protein concentration was estimated by the Bradford colorimetric staining method using BSA as the standard. […] In parallel, non-specific binding was measured with the presence of 20 μM cold PK11195. Samples were distributed onto 96-well GF/B filtration plates and incubated for 60 minutes at 25° C. and then washed once with PBR-binding buffer.

MES-SA = experiment: MTT growth inhibitory assay, MES-SA; type: cell-based, human; details: 72 hours
Experimental: (§2) Growth inhibitory activity of TLN-4601 (Compound 1) and other dibenzodiazepinone analogs was evaluated on a panel of 4 human tumor cell lines: the human uterine sarcoma MES-SA and its doxorubicin-resistant P-glycoprotein over-expressing variant, MES-SA/DX5 as well as non-aggressive and highly aggressive human breast cell lines, MCF-7 and MDA-MB-231, respectively. These four cell lines were obtained from the American Type Culture Collection (Manassas, Va.) and cultured in RPMI plus 10% fetal bovine serum (FBS) and maintained at 37° C. with 5% CO2.
(§3) Exponentially growing cells (5,000 cells per well time; cell number determined with a hemocytometer) were seeded in 96-well flat-bottom plates and allowed to grow overnight. Cells were then incubated for 72 hours with three different concentrations of TLN-4601 or analogs: 30, 10, and 3 μM. The in vitro growth inhibitory activity was determined by a commercial MTT assay. All measurements were done in quadruplicate and each experiment was performed 2-3 times. The lower the value, the more cytotoxic is the compound.

MES-SA/DX5 = experiment: MTT growth inhibitory assay, MES-SA/DX5; type: cell-based, human; details: 72 hours
Experimental: as §2, §3

MCF-7 = experiment: MTT growth inhibitory assay, MCF-7; type: cell-based, human; details: 72 hours
Experimental: as §2, §3

MDA-MB-231 = experiment: MTT growth inhibitory assay, MDA-MB-231; type: cell-based, human; details: 72 hours
Experimental: as §2, §3

SMILES	Hemolysis ED50 (concentration necessary to achieve 50% hemolysis of SRBC) (SRBC) [µg/mL]	cytotoxic activity in the NCI panel [1]	GI50 [2] [µM]	GI50 [3] [µM]	GI50 [4] [µM]	concentration at 60 min ([5]; Sprague-Dawley, liver, intravenous, read-out: concentration in liver) [ng/g]	concentration at 60 min ([5]; Sprague-Dawley, plasma, intravenous, read-out: concentration in plasma) [ng/g]	Kp at 60 min ([5]; Sprague-Dawley, tumor / plasma, intravenous, read-out: tumor compared to plasma)	concentration at 60 min ([5]; Sprague-Dawley, tumor, intravenous, read-out: accumulation in the tumor) [µg/mL]	tumor compared to liver ([5]; in vivo) [fold]	increase in caspase-3 activation (U87 parental)	caspase-3 activity of U87 glioma cells compared to normal human brain endothelial cells [6]	IC50 (PBR) [µM]	% T/C at 10 μM, MES-SA (MES-SA) [%]	% T/C at 10 μM, MES-SA/DX5 (MES-SA/DX5) [%]	% T/C at 10 μM, MCF-7 (MCF-7) [%]	% T/C at 10 μM, MDA-MB-231 (MDA-MB-231) [%]
CC(C)=CCC/C(C)=C/CC/C(C)=C/CN1C(=O)c2cccc(O)c2Nc2c(O)cc(O)cc21 [Compound 1, 10-farnesyl-4,6,8-trihydroxy-5,10-dihydrodibenzo[b,e][1,4]diazepin-11-one]	7.6	broad cytotoxic activity in the low micromolar range	1.4 to 16.3	2.5 to 6.2	3 to 17.3	24800	16200	11	176	7	approximately 15 fold	2-3 fold					
CC(C)=CCC/C(C)=C/CC/C(C)=C/CN1C(=O)c2cccc(O)c2Nc2c1cc(O)c(Br)c2O [Compound 97]	15.1												2.6	80	83	28	68
CC(C)=CCC/C(C)=C/CC/C(C)=C/CN1C(=O)c2cccc(O)c2N(C)c2c1cc(O)c(Br)c2O [Compound 99]														28	24	50	55

Source: patent US20110028458A1, “INHIBITION OF CELL MIGRATION BY A FARNESYLATED DIBENZODIAZEPINONE” (THALLION PHARMACEUTICALS INC., priority 2008, published 2011)
